These results are taken from ChEMBL document CHEMBL1201862, “PubChem BioAssay data set” (2004).

In assay [1] the target is Intestinal-type alkaline phosphatase (Mus musculus, UniProt P24822). Briefly: PubChem AID 488785. In kind it is functional.
Assay [2] concerns the target T1, Alkaline phosphatase, tissue-nonspecific isozyme (Homo sapiens, UniProt P05186).
T1 sequence (P05186 whole entry): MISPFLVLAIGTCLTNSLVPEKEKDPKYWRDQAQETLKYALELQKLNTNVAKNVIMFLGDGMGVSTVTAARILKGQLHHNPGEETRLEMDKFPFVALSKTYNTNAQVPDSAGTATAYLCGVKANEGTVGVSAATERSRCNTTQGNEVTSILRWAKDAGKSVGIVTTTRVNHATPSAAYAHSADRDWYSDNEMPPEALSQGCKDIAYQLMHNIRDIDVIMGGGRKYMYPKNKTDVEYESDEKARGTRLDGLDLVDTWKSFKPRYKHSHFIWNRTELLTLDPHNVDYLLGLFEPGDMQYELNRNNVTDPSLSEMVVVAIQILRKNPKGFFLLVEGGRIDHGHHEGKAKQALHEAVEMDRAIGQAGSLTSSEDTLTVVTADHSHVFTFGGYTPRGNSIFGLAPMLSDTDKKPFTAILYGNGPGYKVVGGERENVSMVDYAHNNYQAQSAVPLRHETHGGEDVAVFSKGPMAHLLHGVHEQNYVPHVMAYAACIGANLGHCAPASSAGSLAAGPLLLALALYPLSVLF
Briefly: TNAP enzyme inhibition by screening hits, dose response, selectivity assay for mouse IAP inhibitor project, biochemical, human TNAP, uHTS hits (AID 488906). It counts as functional.

The target in assay [3] is Intestinal-type alkaline phosphatase (Homo sapiens, UniProt P09923). Nature of the assay: inhibition of human intestinal alkaline phosphatase – biochemical, dose response (AID 488876). It counts as functional.
Assay [4] has as its target T2, Voltage-gated N-type calcium channel alpha-1B subunit/Amyloid beta A4 precursor protein-binding family A member 1 (Homo sapiens, UniProt Q00975+Q02410). In kind it is protein assay.
Assay [5] has as its target Large T antigen (Simian virus 40, UniProt P03070). In kind it is functional, Betapolyomavirus macacae.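 Further: Confirmatory-stage PubChem screen for compounds that inhibit SV40 T antigen.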
The target of assay [6] is T2, Voltage-gated N-type calcium channel alpha-1B subunit/Amyloid beta A4 precursor protein-binding family A member 1. In kind it is protein assay. This is another data set of the same source.
Assay [7] concerns the target DNA dC->dU-editing enzyme APOBEC-3A (Homo sapiens, UniProt P31941). Briefly: Dose Response confirmation of small molecule APOBEC3A DNA Deaminase Inhibitors via a fluorescence-based single-stranded DNA deaminase assay. [Related pubchem assays (depositor defined):AID493011, AID493024]. It counts as functional.
The target in assay [8] is DNA dC->dU-editing enzyme APOBEC-3G (Homo sapiens, UniProt Q9HC16). In kind it is functional.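 Further: Dose-response counterscreen measuring inhibition of APOBEC3G DNA deaminase activity, run while confirming APOBEC3A inhibitors.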
Assay [9] in a line: Trypanosoma cruzi growth suppression in host cells – NIH3T3 host cells, beta-gal luminescence, confirmation (AID 2044).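 Further: intracellular parasites grown in NIH/3T3 mouse fibroblasts as host cells; luminescent beta-galactosidase reporter signal from transgenic T. cruzi replicating inside host cells; inhibitors lower the luminescence signal.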 In kind it is functional, cell-based.
Assay [10] can be described thus: NIH3T3 cell viability loss – ATP luminescence, mouse fibroblasts, counter-screen, dose response (AID 2010).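 Further: cells exposed to compound for about 90 hours before reading.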 In kind it is functional, cell-based. (In general: A counterscreen serves to expose hits that act by an unwanted route or on another target.)
The target of assay [11] is T3, Bcl-2-related protein A1 (Mus musculus, UniProt Q07440).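 Further: confirmatory dose–response counterscreen on Bfl-1, used to check hits from a UBC13 polyubiquitin inhibitor campaign.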
T3 sequence (Q07440 whole entry): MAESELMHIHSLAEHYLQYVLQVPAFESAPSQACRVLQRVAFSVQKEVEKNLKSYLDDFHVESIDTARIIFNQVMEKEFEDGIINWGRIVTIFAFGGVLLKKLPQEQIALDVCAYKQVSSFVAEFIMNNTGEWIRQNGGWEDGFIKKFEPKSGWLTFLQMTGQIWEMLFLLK
It counts as functional.

Assay [12] deals with T4, Ubiquitin-conjugating enzyme E2 N (Homo sapiens, UniProt P61088).
T4 sequence (P61088 whole entry): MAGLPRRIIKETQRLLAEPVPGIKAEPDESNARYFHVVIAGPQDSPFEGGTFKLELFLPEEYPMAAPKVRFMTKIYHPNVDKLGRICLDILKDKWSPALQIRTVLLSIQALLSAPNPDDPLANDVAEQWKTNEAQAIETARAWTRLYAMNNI
In kind it is functional.

Assay [13] deals with T4, Ubiquitin-conjugating enzyme E2 N. It counts as functional. The source holds these as a separate data set.
Assay [14] is described as follows: cells.
The target of assay [15] is DNA damage-inducible transcript 3 protein (Mus musculus, UniProt P35639). It counts as functional, Cricetulus griseus.
A short description of assay [16]: Luminescence Cell-Based Dose Retest to Confirm Inhibitors of Cancer Stem Cells. [Related pubchem assays (depositor defined):AID2717, AID2721]. It counts as functional. Conditions: Homo sapiens.
In assay [17] the target is Troponin, cardiac muscle (Homo sapiens, UniProt P19429+P45379+P63316). Briefly: Fluorescence-based biochemical high throughput dose response assay for activators of the calcium sensitivity of cardiac Regulated Thin Filaments (RTF). [Related pubchem assays (depositor defined):AID493008, AID493018, AID504382, AID504383]. It counts as protein-complex assay.
Assay [18] concerns the target G-protein coupled receptor 55 (Homo sapiens, UniProt Q9Y2T6). Briefly: inhibition of LPI-stimulated GPR55 beta-arrestin translocation – imaging, U2OS, beta-arrestin-GFP, LPI agonist, primary screen (AID 2013).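 Further: antagonist potency measured as reduced agonist-driven arrestin aggregation.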 In kind it is functional.
The nature of assay [19]: viability of PTEN-deleted HCT116 cells – cell-based, HCT116 PTEN knockout, dose response (AID 1047).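 Further: HCT116 colon tumor cells with PTEN knocked out; cells exposed to compound for 60 hours before readout; potency for loss of cell viability measured by luminescence.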 In kind it is functional.
A short description of assay [20]: viability of HCT116 lacking mutant beta-catenin – cell-based, human colon tumor, dose response (AID 1045).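 Further: HCT116 colon tumor cells with beta catenin knocked out; cells exposed to compound for 60 hours.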 In kind it is functional.
The target in assay [21] is Beta-galactosidase (Escherichia coli, UniProt Q8VNN2). Briefly: Dose response counterscreen for EBI2 assay utilizing the enzyme, b-galactosidase. It counts as functional.
The target of assay [22] is Genome polyprotein (dengue virus type 2, UniProt P29990). Nature of the assay: flavivirus cap methylation enzyme inhibition – biochemical, confirmation dose response, primary screen (AID 588689). It counts as functional.
In assay [23] the target is T5, Polyadenylate-binding protein 1 (Homo sapiens, UniProt P11940). Briefly: MLLE binding blockers, Cy5 peptide tracer – biochemical, fluorescence polarization, Cy5-PAM2 peptide, secondary, miRNA deadenylation inhibitor project, dose response (AID 602260). It counts as functional. Conditions: read-out: IC50_Mean. (Polarisation of emitted light reports the rotation of a fluorescent probe.)

In assay [24] the target is T5, Polyadenylate-binding protein 1. Nature of the assay: MLLE domain peptide-binding blockers, IC50 – biochemical, fluorescence polarization, FITC-PAM2 peptide, dose response (AID 602259). It counts as functional. As to conditions: read-out: IC50_Mean.
For assay [25], the target named is T6, Rac GTPase-activating protein 1 (Homo sapiens, UniProt Q9H0H5).
T6 sequence (Q9H0H5 whole entry): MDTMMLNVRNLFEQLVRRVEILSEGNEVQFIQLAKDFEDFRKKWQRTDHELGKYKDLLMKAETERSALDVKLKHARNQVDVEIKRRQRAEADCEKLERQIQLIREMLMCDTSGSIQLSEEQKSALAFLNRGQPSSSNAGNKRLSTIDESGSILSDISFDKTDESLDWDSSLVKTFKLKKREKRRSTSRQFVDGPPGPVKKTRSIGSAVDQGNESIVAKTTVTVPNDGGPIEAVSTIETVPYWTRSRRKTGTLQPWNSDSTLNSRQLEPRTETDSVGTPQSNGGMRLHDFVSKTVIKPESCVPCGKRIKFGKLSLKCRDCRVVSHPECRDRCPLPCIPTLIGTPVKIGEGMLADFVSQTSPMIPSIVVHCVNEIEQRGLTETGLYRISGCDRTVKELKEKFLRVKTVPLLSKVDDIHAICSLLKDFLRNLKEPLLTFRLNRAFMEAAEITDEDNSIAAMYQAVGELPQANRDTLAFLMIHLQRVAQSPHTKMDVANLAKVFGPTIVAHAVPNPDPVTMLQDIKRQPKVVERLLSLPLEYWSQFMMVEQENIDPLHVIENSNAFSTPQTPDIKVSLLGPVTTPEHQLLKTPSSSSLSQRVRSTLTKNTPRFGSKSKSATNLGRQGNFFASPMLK
Briefly: blockers of MgcRacGAP-driven Rac1 GTP hydrolysis – biochemical, ADP Hunter fluorescence, primary and confirmatory, confirmation (AID 624330). It counts as functional.

For assay [26], the target named is FAD-linked sulfhydryl oxidase ALR (Homo sapiens, UniProt P55789). Nature of the assay: ALR-catalysed DTT oxidation blockers – biochemical, H2O2 detection, luminescence, cherry-pick, dose response (AID 493248).

In general, EC50 refers to the concentration at which the effect is half-maximal. A word on the AC50: it is the midpoint of the concentration-response curve, whichever way the signal moves.

Activity calls are given as the source filed them. Some results are limits rather than exact numbers.

T2 sequence (Q00975 whole entry): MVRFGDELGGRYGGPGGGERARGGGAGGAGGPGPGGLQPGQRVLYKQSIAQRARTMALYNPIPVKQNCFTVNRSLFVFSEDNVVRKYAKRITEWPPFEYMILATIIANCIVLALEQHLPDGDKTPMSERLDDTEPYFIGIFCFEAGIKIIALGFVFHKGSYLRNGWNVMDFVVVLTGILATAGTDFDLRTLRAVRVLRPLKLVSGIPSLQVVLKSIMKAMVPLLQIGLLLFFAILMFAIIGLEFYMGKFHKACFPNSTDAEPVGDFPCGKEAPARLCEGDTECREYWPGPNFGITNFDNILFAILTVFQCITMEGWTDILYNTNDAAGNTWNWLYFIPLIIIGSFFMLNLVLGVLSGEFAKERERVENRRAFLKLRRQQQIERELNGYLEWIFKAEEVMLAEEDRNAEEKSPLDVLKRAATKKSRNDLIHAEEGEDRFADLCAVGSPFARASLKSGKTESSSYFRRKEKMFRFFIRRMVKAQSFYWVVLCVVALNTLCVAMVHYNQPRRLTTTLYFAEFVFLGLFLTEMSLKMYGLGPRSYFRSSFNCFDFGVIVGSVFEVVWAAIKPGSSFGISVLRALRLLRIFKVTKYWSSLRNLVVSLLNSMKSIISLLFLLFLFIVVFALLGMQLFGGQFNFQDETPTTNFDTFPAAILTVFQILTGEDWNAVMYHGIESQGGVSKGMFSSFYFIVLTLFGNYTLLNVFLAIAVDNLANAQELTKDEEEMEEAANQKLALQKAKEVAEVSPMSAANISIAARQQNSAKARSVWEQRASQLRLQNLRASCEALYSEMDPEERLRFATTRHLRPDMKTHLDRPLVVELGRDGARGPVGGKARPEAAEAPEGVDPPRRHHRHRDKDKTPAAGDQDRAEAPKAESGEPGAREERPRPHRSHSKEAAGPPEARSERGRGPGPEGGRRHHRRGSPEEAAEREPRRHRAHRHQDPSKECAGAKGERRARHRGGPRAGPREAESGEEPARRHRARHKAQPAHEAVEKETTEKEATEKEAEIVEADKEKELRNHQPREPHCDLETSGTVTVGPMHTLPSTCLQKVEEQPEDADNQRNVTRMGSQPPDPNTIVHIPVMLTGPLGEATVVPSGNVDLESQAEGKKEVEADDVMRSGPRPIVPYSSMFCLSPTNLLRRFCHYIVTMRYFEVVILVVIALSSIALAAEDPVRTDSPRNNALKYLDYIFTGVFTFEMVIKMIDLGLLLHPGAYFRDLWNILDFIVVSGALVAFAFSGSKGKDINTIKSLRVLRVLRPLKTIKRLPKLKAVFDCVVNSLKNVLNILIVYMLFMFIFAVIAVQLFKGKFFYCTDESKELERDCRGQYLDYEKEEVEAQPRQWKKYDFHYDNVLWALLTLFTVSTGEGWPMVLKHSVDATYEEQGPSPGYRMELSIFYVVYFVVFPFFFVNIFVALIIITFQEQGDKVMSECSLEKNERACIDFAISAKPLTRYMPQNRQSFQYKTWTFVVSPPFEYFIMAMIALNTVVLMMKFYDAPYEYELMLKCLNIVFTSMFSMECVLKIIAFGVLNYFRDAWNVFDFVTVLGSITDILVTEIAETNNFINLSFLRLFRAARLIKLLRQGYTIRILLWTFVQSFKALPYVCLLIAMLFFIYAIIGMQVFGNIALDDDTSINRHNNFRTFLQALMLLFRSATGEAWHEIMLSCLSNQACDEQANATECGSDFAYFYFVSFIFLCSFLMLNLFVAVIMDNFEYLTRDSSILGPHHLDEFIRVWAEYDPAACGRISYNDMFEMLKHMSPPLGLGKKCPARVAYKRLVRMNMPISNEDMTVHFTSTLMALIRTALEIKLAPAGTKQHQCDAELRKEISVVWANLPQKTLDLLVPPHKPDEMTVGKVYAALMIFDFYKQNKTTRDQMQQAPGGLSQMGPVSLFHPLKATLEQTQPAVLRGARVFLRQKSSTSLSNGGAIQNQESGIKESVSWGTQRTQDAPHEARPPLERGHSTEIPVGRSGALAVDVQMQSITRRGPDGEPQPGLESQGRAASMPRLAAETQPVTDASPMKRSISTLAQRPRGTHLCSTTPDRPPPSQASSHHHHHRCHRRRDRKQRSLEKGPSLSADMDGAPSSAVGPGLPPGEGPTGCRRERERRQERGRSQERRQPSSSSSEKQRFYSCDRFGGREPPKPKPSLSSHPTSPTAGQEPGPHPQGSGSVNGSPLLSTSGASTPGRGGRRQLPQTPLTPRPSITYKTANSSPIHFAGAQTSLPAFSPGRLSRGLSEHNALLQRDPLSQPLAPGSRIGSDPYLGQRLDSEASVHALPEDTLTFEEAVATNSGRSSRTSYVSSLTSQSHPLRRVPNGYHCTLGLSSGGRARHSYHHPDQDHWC
T2 sequence (Q02410 whole entry): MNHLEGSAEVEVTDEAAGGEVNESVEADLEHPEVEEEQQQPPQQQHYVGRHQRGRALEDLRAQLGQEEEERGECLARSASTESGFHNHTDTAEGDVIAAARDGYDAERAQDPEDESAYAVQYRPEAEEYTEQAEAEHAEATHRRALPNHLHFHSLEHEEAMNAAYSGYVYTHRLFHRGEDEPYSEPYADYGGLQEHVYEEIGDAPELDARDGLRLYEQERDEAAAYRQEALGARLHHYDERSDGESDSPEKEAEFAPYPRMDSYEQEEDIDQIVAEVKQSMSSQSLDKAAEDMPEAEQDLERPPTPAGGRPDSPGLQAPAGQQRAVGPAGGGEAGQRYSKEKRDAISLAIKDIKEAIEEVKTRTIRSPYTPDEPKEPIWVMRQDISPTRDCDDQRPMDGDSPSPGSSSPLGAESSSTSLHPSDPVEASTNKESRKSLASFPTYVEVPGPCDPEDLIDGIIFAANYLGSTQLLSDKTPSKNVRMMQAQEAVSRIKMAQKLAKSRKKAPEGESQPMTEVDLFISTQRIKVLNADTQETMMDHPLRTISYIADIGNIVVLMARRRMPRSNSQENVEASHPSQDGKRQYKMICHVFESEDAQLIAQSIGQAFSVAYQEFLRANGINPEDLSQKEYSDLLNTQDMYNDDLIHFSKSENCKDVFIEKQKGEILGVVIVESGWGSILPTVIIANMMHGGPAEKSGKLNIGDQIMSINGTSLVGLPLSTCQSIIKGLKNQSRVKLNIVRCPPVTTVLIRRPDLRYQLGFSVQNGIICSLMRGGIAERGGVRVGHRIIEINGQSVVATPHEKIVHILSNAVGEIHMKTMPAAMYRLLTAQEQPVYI
Intestinal-type alkaline phosphatase (Homo sapiens, UniProt P09923), sequence (P09923 whole entry): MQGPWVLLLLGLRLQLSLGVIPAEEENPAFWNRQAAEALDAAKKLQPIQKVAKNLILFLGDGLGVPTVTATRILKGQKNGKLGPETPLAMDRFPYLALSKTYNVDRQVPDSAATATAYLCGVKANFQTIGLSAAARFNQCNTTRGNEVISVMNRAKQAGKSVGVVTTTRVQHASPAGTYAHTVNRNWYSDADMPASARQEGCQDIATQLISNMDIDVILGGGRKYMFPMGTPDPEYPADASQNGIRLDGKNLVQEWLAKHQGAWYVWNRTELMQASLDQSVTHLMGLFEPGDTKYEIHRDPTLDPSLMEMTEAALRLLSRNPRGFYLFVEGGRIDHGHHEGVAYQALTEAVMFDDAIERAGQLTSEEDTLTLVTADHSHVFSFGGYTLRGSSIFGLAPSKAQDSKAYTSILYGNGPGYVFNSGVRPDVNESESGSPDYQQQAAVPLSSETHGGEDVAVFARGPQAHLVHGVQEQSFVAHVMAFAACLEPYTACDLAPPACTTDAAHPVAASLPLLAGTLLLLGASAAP
Intestinal-type alkaline phosphatase (Mus musculus, UniProt P24822), sequence (P24822 whole entry): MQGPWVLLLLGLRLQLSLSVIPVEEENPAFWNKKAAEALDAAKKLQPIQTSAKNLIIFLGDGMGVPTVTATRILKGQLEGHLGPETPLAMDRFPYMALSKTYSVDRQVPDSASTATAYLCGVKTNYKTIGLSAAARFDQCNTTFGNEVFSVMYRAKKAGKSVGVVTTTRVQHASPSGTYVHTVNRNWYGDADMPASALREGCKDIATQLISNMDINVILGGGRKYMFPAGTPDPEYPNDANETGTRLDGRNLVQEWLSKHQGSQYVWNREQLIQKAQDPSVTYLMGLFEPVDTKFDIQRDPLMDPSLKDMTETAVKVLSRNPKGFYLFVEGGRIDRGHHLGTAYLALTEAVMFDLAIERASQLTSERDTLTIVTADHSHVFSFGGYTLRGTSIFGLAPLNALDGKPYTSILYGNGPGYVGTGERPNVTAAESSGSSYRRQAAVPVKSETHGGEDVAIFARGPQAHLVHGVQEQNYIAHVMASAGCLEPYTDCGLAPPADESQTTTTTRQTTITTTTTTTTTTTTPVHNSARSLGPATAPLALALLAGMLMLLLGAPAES
Large T antigen, sequence (P03070 whole entry): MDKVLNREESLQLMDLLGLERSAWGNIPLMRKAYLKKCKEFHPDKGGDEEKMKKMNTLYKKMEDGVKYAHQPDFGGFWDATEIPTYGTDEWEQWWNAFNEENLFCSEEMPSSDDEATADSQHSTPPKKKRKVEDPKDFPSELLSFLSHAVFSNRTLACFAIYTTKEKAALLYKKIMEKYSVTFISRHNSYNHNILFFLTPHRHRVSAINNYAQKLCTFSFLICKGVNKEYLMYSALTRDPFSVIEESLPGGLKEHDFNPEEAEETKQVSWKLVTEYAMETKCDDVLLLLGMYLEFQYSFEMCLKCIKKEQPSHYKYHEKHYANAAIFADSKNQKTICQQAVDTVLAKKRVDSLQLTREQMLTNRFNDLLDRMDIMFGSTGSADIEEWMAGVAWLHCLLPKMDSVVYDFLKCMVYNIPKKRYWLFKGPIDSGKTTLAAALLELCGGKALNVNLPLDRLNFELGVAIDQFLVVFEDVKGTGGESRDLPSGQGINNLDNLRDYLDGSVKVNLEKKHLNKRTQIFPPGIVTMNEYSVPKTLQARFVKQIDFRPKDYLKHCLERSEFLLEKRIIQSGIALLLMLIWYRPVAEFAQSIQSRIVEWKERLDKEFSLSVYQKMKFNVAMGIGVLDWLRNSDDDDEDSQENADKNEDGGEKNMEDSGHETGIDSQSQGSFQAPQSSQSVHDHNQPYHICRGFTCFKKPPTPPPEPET

With `C#CCOCCOCCOCCNc1nc(N2CCN(C(=O)CCCCCCCCCCNC(=O)Cn3cc(C[C@@H](C)O)nn3)CC2)nc(N2CCN(C(=O)CCCCCCCCCCNC(=O)[C@@H](CCSC)n3cc(CCO)nn3)CC2)n1`, the IC50 was 27.6 µM (active) in [1], 27.3 µM (active) in assay [2] and 36.3 µM (active) in assay [3].
Regarding `CC1=C(C)C[S+]([O-])N(S(=O)(=O)c2ccccc2)C1` (configuration not stated), the IC50 in assay [4] was 41.7 µM (active); in assay [5], 19 µM (active); in [6] it was > 50 µM (inactive).
`O=C1NC(=O)N(CCc2ccc(F)cc2)C(=O)/C1=C/c1ccco1`: the IC50 in assay [4] is 14.8 µM (active); in [5], 12.3 µM (active); in [6] it was > 50 µM (inactive); in [7], 15 µM (active); in assay [8], 20.5 µM (active).
For the molecule `COc1cc2nc(N(CCCN(C)C)C(=O)c3ccc(S(=O)(=O)N4CCc5ccccc5C4)cc3)sc2cc1OC`, the EC50 is < 0.1 µM (active) in [9], > 60 µM (not active) in assay [10] and 0.569 µM (active) in assay [14]. For the same molecule, the IC50 was > 20 µM (inactive) in assay [11], 8.3 µM (active) in [12] and 8.69 µM (active) in assay [13].
For the molecule `CCOC(=O)c1sc(NN=C2C(=O)NC(=O)NC2=O)c(C(=O)OCC)c1C`, the “Absolute IC50 (CHOP)” value in [15] amounted to 10 µM.
With `C#CCOCCOCCOCCNc1nc(N2CCN(C(=O)CCCCCCCCCCNC(=O)Cn3cc(C[C@@H](C)O)nn3)CC2)nc(N2CCN(C(=O)CCCCCCCCCCNC(=O)[C@H](CCCCN)n3cc(C[C@@H](C)CC)nn3)CC2)n1`, the AC50 in assay [16] was 7.11 µM (active). The IC50 in [1] is 4.71 µM (active); in assay [2], 95.5 µM (active); in assay [3], > 100 µM (inactive).
For the molecule `O=C(CSc1nnc(COc2ccccc2)o1)N1CCN(c2ccccc2)CC1`, the EC50 in assay [17] is > 71.5 µM (inactive).
Regarding `C=CCNC(=O)/C(C#N)=C/c1ccc(OS(=O)(=O)c2ccc(C)cc2)c(OC)c1`, the IC50 was 1.93 µM (active) in assay [18] and > 80 µM (inactive) in assay [21]. Also, the EC50 in [19] was 28.1 µM (active); in [20], 26.6 µM (active).
For the molecule `O=C(O)CCn1cc(C=C2C(=O)NC(=S)NC2=O)c(-c2ccccc2)n1`, the IC50 in assay [4] was 13.1 µM (active); in assay [6] it was 19.8 µM (active); in assay [22] it was 7.65 µM (active); in assay [23] it was > 66 µM (inactive); in assay [24] it was > 66 µM (inactive); in assay [25], 86.5 µM (active).
For `Cc1cc(O)c(Sc2nc[nH]n2)cc1NS(=O)(=O)c1ccc(Cl)cc1`, the IC50 in assay [1] was 5.84 µM (active); in assay [2] it was 92.6 µM (active); in assay [3] it was > 100 µM (inactive). Moreover, the AC50 in assay [26] was 1.52 µM (active).
